Calls of active or inactive are those of the source. The calls are words filed in the database; no cut-off is given here.
Test system: ALK tyrosine kinase receptor (Homo sapiens), Q9UM73 [L1196M]
Sequence (Q9UM73 whole entry L1196M, looked up): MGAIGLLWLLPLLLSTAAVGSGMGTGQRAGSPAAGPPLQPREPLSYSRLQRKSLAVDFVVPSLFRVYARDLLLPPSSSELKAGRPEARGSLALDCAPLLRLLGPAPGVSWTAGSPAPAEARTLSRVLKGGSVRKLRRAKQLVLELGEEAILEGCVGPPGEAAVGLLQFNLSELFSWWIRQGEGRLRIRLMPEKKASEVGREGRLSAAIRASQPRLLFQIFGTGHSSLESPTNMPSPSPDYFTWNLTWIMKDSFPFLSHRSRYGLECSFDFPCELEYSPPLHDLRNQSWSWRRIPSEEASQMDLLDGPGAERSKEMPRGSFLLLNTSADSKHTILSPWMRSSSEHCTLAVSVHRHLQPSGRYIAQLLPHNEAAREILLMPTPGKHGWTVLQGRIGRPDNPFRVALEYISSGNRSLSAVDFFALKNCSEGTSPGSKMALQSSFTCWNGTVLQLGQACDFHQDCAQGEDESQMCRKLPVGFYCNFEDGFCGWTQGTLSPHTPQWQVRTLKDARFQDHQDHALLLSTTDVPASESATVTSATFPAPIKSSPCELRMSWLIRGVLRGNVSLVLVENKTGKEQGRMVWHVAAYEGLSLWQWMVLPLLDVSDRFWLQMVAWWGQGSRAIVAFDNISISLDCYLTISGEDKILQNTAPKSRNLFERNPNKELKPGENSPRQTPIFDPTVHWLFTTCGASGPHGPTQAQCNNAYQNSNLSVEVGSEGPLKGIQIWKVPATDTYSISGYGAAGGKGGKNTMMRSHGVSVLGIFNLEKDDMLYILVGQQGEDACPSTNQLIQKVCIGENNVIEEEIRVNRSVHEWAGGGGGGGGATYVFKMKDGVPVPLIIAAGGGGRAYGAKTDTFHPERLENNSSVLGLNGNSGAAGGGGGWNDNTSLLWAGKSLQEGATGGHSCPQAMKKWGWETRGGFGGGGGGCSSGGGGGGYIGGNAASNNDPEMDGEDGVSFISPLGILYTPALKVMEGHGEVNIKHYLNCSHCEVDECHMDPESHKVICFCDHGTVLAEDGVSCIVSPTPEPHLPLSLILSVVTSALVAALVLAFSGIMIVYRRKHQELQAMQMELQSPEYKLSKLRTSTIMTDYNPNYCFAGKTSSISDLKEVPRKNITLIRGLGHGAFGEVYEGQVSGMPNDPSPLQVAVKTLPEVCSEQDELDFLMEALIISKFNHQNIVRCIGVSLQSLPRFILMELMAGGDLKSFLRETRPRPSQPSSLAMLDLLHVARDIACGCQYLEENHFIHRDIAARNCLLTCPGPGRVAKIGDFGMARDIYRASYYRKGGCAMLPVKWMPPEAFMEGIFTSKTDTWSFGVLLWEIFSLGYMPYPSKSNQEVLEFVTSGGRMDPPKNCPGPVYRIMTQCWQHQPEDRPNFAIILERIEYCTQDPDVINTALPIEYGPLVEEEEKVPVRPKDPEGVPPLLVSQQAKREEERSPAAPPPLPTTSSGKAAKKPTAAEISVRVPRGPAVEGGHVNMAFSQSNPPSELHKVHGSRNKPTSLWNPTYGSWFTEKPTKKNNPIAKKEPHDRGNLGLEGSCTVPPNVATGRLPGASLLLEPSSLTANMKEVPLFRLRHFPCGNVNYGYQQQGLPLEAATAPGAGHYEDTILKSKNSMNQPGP

Question: How did the TDI turn out when `Cc1ccc(Oc2ccnc3cc(-c4cnn(C5CCNCC5)c4)ccc23)cc1` was run?
Answer: inactive
